Reference: patent publication US5190922A (priority 1991, dated 1993)
Where two headings read alike, the source gives them in different places. Non-standard residues stand in square brackets, D forms with d. Residues, ends and D or L forms follow the SMILES beside them. ξ: configuration not given here. *: point of attachment. X10 = N=C(N)NCCCCN(C[C@H](CC1CCCCC1)N*)C(=O)Cc1ccccc1; Butanoyl(3S-Ph) = C[C@@H](CC(=O)*)c1ccccc1; X6 = N#CC(Cc1ccccc1)(Cc1ccccc1)C(=O)*; NHCH2(2-pyridyl) = c1ccc(CN*)nc1; NMeF = CN[C@@H](Cc1ccccc1)C(=O)O; PhLac = O=C(O)[C@@H](O)Cc1ccccc1; X11 = O=[N+]([O-])c1cccc(CN*)c1; Cha = N[C@@H](CC1CCCCC1)C(=O)O; dCha = N[C@H](CC1CCCCC1)C(=O)O; Phe(ol) = N[C@H](CO)Cc1ccccc1; X9 = CC[C@H](C(=O)*)c1ccccc1; X2 = N#CC(Cc1ccccc1)C(=O)*; ξCha = NC(CC1CCCCC1)C(=O)O; 4Amb = NCc1ccc(C(=O)O)cc1; X8 = c1ccc(C2(CN*)CC2)cc1; X7 = O=C(C(CO)c1ccccc1)*; NH(CH2)5NH2 = NCCCCCN*; NHBn = c1ccc(CN*)cc1; Bz = O=C(c1ccccc1)*; OBn = c1ccc(CO*)cc1; X5 = c1ccc(NN*)cc1; X3 = N=C(N)NCCCN*

Target: T1, C5a Receptor (Homo sapiens, UniProt P21730)
T1 construct: 2.5-25 μg/mL of purified PMNL membrane fragments; from tissue; host or cells: polymorphonuclear leukocyte (PMNL) membrane fragments
T1 sequence (P21730 1-350): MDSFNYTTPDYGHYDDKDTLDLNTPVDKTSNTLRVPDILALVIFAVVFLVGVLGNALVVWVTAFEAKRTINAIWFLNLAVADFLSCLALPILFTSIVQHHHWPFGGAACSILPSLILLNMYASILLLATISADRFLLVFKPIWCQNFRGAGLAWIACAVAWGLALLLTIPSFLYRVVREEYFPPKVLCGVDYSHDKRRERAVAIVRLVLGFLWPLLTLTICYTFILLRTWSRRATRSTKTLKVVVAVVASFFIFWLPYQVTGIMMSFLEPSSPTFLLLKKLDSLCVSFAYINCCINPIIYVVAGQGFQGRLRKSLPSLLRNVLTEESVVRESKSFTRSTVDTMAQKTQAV
Assay: Anaphylatoxin receptor binding Ki determination (inhibition of 125I-C5a binding to PMNL membrane fragments)
Procedure: Specific inhibition of C5 a binding activity of representative compounds of the present invention was measured using 0.03-1 nM ^125 I-C5 a with 2.5-25 μg/mL of purified PMNL membrane fragments (Borregaard, N.; Heiple, J. M.; Simons, E. R.; and Clark, R. A. J. Cell. Biol. 1983, 97, 52-61.). Free and membrane-bound ligand were separated by filtration.

[1] = 0.03-1 nM 125I-C5a, 2.5-25 μg/mL purified PMNL membrane fragments, filtration, read-out: Ki (In vitro C5a Receptor Binding Potency)

Structure (SMILES): N=C(N)NCCC[C@@H](NC(=O)[C@H](CC1CCCCC1)NC(=O)[C@@H](CC1CCCCC1)NC(=O)[C@@H]1CCCN1C(=O)[C@H](CCCCN)NC(=O)C(Cc1ccccc1)C(=O)O)C(=O)O (mixture of isomers) [Example 149, {(R/S)-(2-Carboxyl)-3-phenylpropionyl}-Lysyl-Prolyl-{(2R)-2-Amino-3-cyclohexylpropanoyl}-{(2S)-2-Amino-3-cyclohexylpropanoyl}-DArginyl-OH]
- Ki [1]: 22 nM

Structure (SMILES): CC[C@H](C(=O)N[C@@H](CCCCN)C(=O)N1CCC[C@H]1C(=O)N[C@H](CC1CCCCC1)C(=O)N[C@@H](CC1CCCCC1)C(=O)N[C@H](CCCNC(=N)N)C(=O)O)c1ccccc1 [Example 2, (S)-(+)-2-phenylbutyryl-Lysyl-Prolyl-{(2R)-2-Amino-3-cyclohexylpropanoyl}-{(2S)-2-Amino-3-cyclohexylpropanoyl}-DArginyl-OH] (X9-KP[dCha][Cha][dR]-OH)
- Ki [1]: 14 nM

Structure (SMILES): N=C(N)NCCC[C@@H](NC(=O)[C@H](Cc1ccccc1)NC(=O)[C@@H](CC1CCCCC1)NC(=O)[C@@H]1CCCN1C(=O)[C@H](CCCCN)NC(=O)C(CO)c1ccccc1)C(=O)O (stereo partly drawn) [Example 8, {(2R/S)-2-Hydroxymethyl-2-phenylacetyl}-Lysyl-Prolyl-{(2R)-2-Amino-3-cyclohexylpropanoyl}-Phenylalanyl-DArginyl-OH] (X7-KP[dCha]F[dR]-OH)
- Ki [1]: 6200 nM

Structure (SMILES): CN[C@@H](Cc1ccccc1)C(=O)N[C@@H](CCCCN)C(=O)N1CCC[C@H]1C(=O)N[C@H](CC1CCCCC1)C(=O)N[C@@H](CC1CCCCC1)C(=O)NCCCCCN [Example 30, (N-Methyl)Phenylalanyl-Lysyl-Prolyl-{(2R)-2-Amino-3-cyclohexylpropanoyl}-{(2S)-2-Amino-3-cyclohexylpropanoyl}-N-(5-Aminopentyl)amide] (H-[NMeF]KP[dCha][Cha]-{NH(CH2)5NH2})
- Ki [1]: 2200 nM

Structure (SMILES): CN[C@@H](Cc1ccccc1)C(=O)N[C@@H](CCCCN)C(=O)N1CCC[C@H]1C(=O)N[C@H](CC1CCCCC1)C(=O)N[C@@H](CC1CCCCC1)C(=O)NCCCNC(=N)N [Example 55, (N-Methyl)Phenylalanyl-Lysyl-Prolyl-{(2R)-2-Amino-3-cyclohexylpropanoyl}-{(2S)-2-Amino-3-cyclohexylpropanoyl}-N-(3-Guanidinopropyl)amide] (H-[NMeF]KP[dCha][Cha]-X3)
- Ki [1]: 7 nM

Structure (SMILES): C[C@@H](CC(=O)N[C@@H](CCCCN)C(=O)N1CCC[C@H]1C(=O)N[C@H](CC1CCCCC1)C(=O)N[C@@H](CC1CCCCC1)C(=O)N[C@H](CCCNC(=N)N)C(=O)O)c1ccccc1 [Example 57, {S(+)-3-Phenylbutyryl}-Lysyl-Prolyl-{(2R)-2-Amino-3-cyclohexylpropanoyl}-{(2S)-2-Amino-3-cyclohexylpropanoyl}-DArginyl-OH] ({Butanoyl(3S-Ph)}-KP[dCha][Cha][dR]-OH)
- Ki [1]: 27 nM

Structure (SMILES): CN[C@@H](Cc1ccccc1)C(=O)N[C@@H](CCCCN)C(=O)N1CCC[C@H]1C(=O)N[C@H](CC1CCCCC1)C(=O)N[C@@H](CC1CCCCC1)CN(CCCCNC(=N)N)C(=O)Cc1ccccc1 [Example 78, N-(4-Guanidinobutyl)-N-[(N-Methyl)Phenylalanyl-Lysyl-Prolyl-{(2R)-2-Amino-3-cyclohexylpropanoyl}-{(2S)-2-Amino-3-cyclohexylpropyl}]-N-Phenylacetamide] (H-[NMeF]KP[dCha]-X10)
- Ki: 680 nM

Structure (SMILES): N=C(N)NCCC[C@@H](NC(=O)[C@H](CC1CCCCC1)NC(=O)[C@@H](CC1CCCCC1)NC(=O)[C@@H]1CCCN1C(=O)[C@H](CCCCN)NC(=O)c1ccccc1)C(=O)O [Example 82, N-Benzoyl-Lysyl-Prolyl-{(2R)-2-Amino-3-cyclohexylpropanoyl}-{(2S)-2-Amino-3-cyclohexylpropanoyl}-DArginyl-OH] (Bz-KP[dCha][Cha][dR]-OH)
- Ki: 24000 nM

Structure (SMILES): N=C(N)NCCC[C@@H](NC(=O)[C@H](Cc1ccccc1)NC(=O)[C@@H](CC1CCCCC1)NC(=O)[C@@H]1CCCN1C(=O)[C@H](CCCCN)NC(=O)[C@@H](O)Cc1ccccc1)C(=O)O [Example 84, {(3S)-Phenyllactyl)-Lysyl-Prolyl-{(2R)-2-Amino-3-cyclohexylpropanoyl}-Phenylalanyl-DArginyl-OH] (H-[PhLac]KP[dCha]F[dR]-OH)
- Ki [1]: 62 nM

Structure (SMILES): N#CC(Cc1ccccc1)(Cc1ccccc1)C(=O)N[C@@H](CCCCN)C(=O)N1CCC[C@H]1C(=O)N[C@H](CC1CCCCC1)C(=O)N[C@@H](Cc1ccccc1)C(=O)N[C@H](CCCNC(=N)N)C(=O)O [Example 88, {2-Benzyl-2-cyano-3-phenylpropionyl}-Lysyl-Prolyl-{(2R)-2-Amino-3-cyclohexylpropanoyl}-Phenylalanyl-DArginyl-OH] (X6-KP[dCha]F[dR]-OH)
- Ki [1]: 670 nM

Structure (SMILES): CN[C@@H](Cc1ccccc1)C(=O)N[C@@H](CCCCN)C(=O)N1CCC[C@H]1C(=O)N[C@H](CC1CCCCC1)C(=O)N[C@@H](CC1CCCCC1)C(=O)NCc1ccccc1 [Example 96, (N-Methyl)Phenylalanyl-Lysyl-Prolyl-{(2R)-2-Amino-3-cyclohexylpropanoyl}-{(2S)-2-Amino-3-cyclohexylpropanoyl}-N-Benzylamide] (H-[NMeF]KP[dCha][Cha]-NHBn)
- Ki [1]: 90 nM

Structure (SMILES): N#CC(Cc1ccccc1)C(=O)N[C@@H](CCCCN)C(=O)N1CCC[C@H]1C(=O)N[C@H](CC1CCCCC1)C(=O)N[C@@H](Cc1ccccc1)C(=O)N[C@H](CCCNC(=N)N)C(=O)O (stereo partly drawn) [Example 99, {(2RS)-2-Cyano-3-phenylpropionyl}-Lysyl-Prolyl-{(2R)-2-Amino-3-cyclohexylpropanoyl}-Phenylalanyl-DArginyl-OH] (X2-KP[dCha]F[dR]-OH)
- Ki: 120 nM

Structure (SMILES): CN[C@@H](Cc1ccccc1)C(=O)N[C@@H](CCCCN)C(=O)N1CCC[C@H]1C(=O)N[C@H](CC1CCCCC1)C(=O)N[C@@H](Cc1ccccc1)C(=O)NCC1(c2ccccc2)CC1 [Example 100, (N-Methyl)Phenylalanyl-Lysyl-Prolyl-{(2R)-2-Amino-3-cyclohexylpropanoyl}-Phenylalanyl-N-{(1-Phenyl)cyclopropylmethyl}amide] (H-[NMeF]KP[dCha]F-X8)
- Ki: 91 nM

Structure (SMILES): CN[C@@H](Cc1ccccc1)C(=O)N[C@@H](CCCCN)C(=O)N1CCC[C@H]1C(=O)N[C@H](CC1CCCCC1)C(=O)N[C@@H](CC1CCCCC1)C(=O)NCc1cccc([N+](=O)[O-])c1 [Example 114, (N-Methyl)Phenylalanyl-Lysyl-Prolyl-{(2R)-2-Amino-3-cyclohexylpropanoyl}-{(2S)-2-Amino-3-cyclohexylpropanoyl}-N-(3-Nitrobenzyl)amide] (H-[NMeF]KP[dCha][Cha]-X11)
- Ki [1]: 130 nM

Structure (SMILES): CN[C@@H](Cc1ccccc1)C(=O)N[C@@H](CCCCN)C(=O)N1CCC[C@H]1C(=O)N[C@H](CC1CCCCC1)C(=O)N1CCN(Cc2ccccc2)CC1 [Example 117]
- Ki [1]: 110000 nM

Structure (SMILES): CN[C@@H](Cc1ccccc1)C(=O)N[C@@H](CCCCN)C(=O)N1CCC[C@H]1C(=O)N[C@H](CC1CCCCC1)C(=O)N[C@H](CO)Cc1ccccc1 [Example 119, (N-Methyl)Phenylalanyl-Lysyl-Prolyl-{(2R)-2-Amino-3-cyclohexylpropanoyl}-{(S)-(-)-2-Amino-3-phenyl-1-propanol}] (H-[NMeF]KP[dCha][Phe(ol)])
- Ki [1]: 780 nM

Structure (SMILES): CN[C@@H](Cc1ccccc1)C(=O)N[C@@H](CCCCN)C(=O)N1CCC[C@H]1C(=O)N[C@H](CC1CCCCC1)C(=O)NC(CC1CCCCC1)C(=O)OCc1ccccc1 (stereo partly drawn) [Example 159, (N-Methyl)Phenylalanyl-Lysyl-Prolyl-{(2R)-2-Amino-3-cyclohexylpropanoyl}-{(2R/S)-2-Amino-3-cyclohexylpropanoyl}O-Benzyl] (H-[NMeF]KP[dCha][ξCha]-OBn)
- Ki [1]: 980 nM

Structure (SMILES): CN[C@@H](Cc1ccccc1)C(=O)N[C@@H](CCCCN)C(=O)N1CCC[C@H]1C(=O)N[C@H](CC1CCCCC1)C(=O)N[C@@H](CC1CCCCC1)C(=O)NNc1ccccc1 [Example 163, (N-Methyl)Phenylalanyl-Lysyl-Prolyl-{(2R)-2-Amino-3-cyclohexylpropanoyl}-{(2S)-2-Amino-3-cyclohexylpropanoyl}-N-(N'-Phenyl)hydrazide] (H-[NMeF]KP[dCha][Cha]-X5)
- Ki: 140 nM

Structure (SMILES): CN[C@@H](Cc1ccccc1)C(=O)N[C@@H](CCCCN)C(=O)N1CCC[C@H]1C(=O)N[C@H](CC1CCCCC1)C(=O)N[C@@H](Cc1ccccc1)C(=O)NCc1ccc(C(=O)O)cc1 [Example 177, (N-Methyl)Phenylalanyl-Lysyl-Prolyl-{(2R)-2-Amino-3-cyclohexylpropanoyl}-Phenylalanyl-N-(4-Carboxybenzyl)amide] (H-[NMeF]KP[dCha]F[4Amb]-OH)
- Ki: 38700 nM

Structure (SMILES): CN[C@@H](Cc1ccccc1)C(=O)N[C@@H](CCCCN)C(=O)N1CCC[C@H]1C(=O)N[C@H](CCCNC(=N)N)C(=O)N[C@@H](Cc1ccccc1)C(=O)NCc1ccccn1 [Example 199, (N-Methyl)Phenylalanyl-Lysyl-Prolyl-DArginyl-Phenylalanyl-N-(2-Picolyl)amide] (H-[NMeF]KP[dR]F-{NHCH2(2-pyridyl)})
- Ki [1]: 8400 nM

Structure (SMILES): CN[C@@H](Cc1ccccc1)C(=O)N[C@@H](CCCCN)C(=O)N1CCC[C@H]1C(=O)N[C@H](CC1CCCCC1)C(=O)N[C@@H](Cc1ccccc1)C(=O)NCCCNC(=N)N [Example 201, (N-Methyl)Phenylalanyl-Lysyl-Prolyl-{(2R)-2-Amino-3-cyclohexylpropanoyl}-Phenylalanyl-N-(3-Guanidinopropyl)amide] (H-[NMeF]KP[dCha]F-X3)
- Ki: 690 nM
